Results from patent US10189795B2, “Aryl amine substituted quinoxaline used as anticancer drugs” (priority 2014, dated 2019).

Assays:
CIP2A, p-Akt = experiment: western blot of CIP2A and p-Akt in HCC cells; type: cell-based; settings: dose- and time-dependent
Experimental: Bar, mean; error bars, S.D. (n=3). […] Bar, mean; error bars, S.D. (n=3). […] Bar, mean; error bars, S.D. (n=3). […] Bar, mean; error bars, S.D. (n=3). […] Bar, mean; error bars, S.D. (n=3)
Cells were treated with […] for a time period. Cell lysates were analyzed by western blot analysis.
The present invention next investigated the molecular mechanism associated with TD-52, with particular focus on the cancerous inhibitor of protein phosphatase 2A (CIP2A)-protein phosphatase 2A (PP2A)-p-Akt signaling pathway. […] Furthermore, PP2A activity was enhanced after HCC cells treated with […]-52 for 24 hr (FIG. 2C), while the expression level of PP2A-related subunits, PP2A-A, PP2A-B5 and PP2A-C subunits, were not affected.

PLC5 xenograft tumor = PLC5 xenograft tumor growth in nude mice; type: in vivo
Experimental: Male NCr athymic nude mice (5-7 weeks of age) were obtained from the National Laboratory Animal Center (Taipei, Taiwan). All experimental procedures using these mice were performed in accordance with protocols approved by the Institutional Laboratory Animal Care and Use Committee of National Taiwan University. Each mouse was inoculated subcutaneously in the dorsal flank with 1×10^6 PLC5 or A549 cells suspended in serum-free medium containing 50% Matrigel (BD Biosciences, Bedford, Mass., USA). When tumors reached 100-150 mm^3, mice were treated with sorafenib, the erlotinib derivatives of the present invention, or vehicle (control) at 10 mg/kg/day daily by oral gavage for 4 weeks.
The present invention used a PLC5 xenograft mouse model to assess the effects of TD-52 in vivo. The present choose sorafenib as one of the comparative treatment arms. Tumor-bearing mice were administered sorafenib (10 mg/kg), TD-52 (10 mg/kg) or DMSO (vehicle, as control). […] The present invention further examined the xenografted tumors taken from mice receiving TD-52 and vehicle to confirm the molecular events in the tumor tissue. […] When PP2A activity was enhanced by TD-52, Akt was dephosphorylated, promoting HCC cell apoptosis.

A549 = experiment: cell viability of A549 cells, 1 and 10 uM; type: cell-based; settings: Homo sapiens
NCI-1703 = experiment: cell viability of NCI-1703 cells, 1 and 10 uM of each erlotinib derivative, and IC50; type: cell-based; settings: Homo sapiens
Hep3B = experiment: MTT cell viability, Hep3B; type: cell-based; settings: Homo sapiens, 48 h
Experimental: (§1) The Sk-Hep1, PLC/PRF/5 (PLC) and Hep3B cell lines were obtained from American Type Culture Collection (ATCC; Manassas, Va., USA). The Huh-7 HCC cell line was obtained from the Health Science Research Resources Bank (HSRRB; Osaka, Japan; JCRB0403). Cells were maintained in DMEM supplemented with 10% FBS in a 37° C. humidified incubator in an atmosphere of 5% CO^2 in air. Other cell lines, including non-small cell lung cancer cells e.g. H358, H460 and A549 and human squamous cell carcinoma cells e.g. NCI-1703, H2170, H520, SW900 and NCI—H226 all obtained from American Type Culture Collection (Manassas, Va.) were also provided for the assays describes below.
(§2) The present invention compared the antitumor activities of an erlotinib derivative of the present invention, TD-52, and erlotinib on HCC cells. The present invention used MTT assay to evaluate cell viability after exposure to TD-52 or erlotinib for 48 h. […] To further evaluate the cell apoptosis induced by the treatments, all four cell lines were treated with TD-52 and erlotinib at the indicated concentration for 24 h and the percentages of sub-G1 cells were determined by flow cytometry (FIG. 1B).

PP2A = PP2A phosphatase activity (malachite green-phosphate assay in cell lysate); type: cell-based
Experimental: The protein phosphatase activity in each cell lysate was determined by measuring the generation of free phosphate from threonine phosphopeptide using the malachite green-phosphate complex assay as described by the manufacturer (Upstate Biotechnology, Lake Placid, N.Y., USA). In brief, HCC cell lysates were first prepared in a low-detergent lysis buffer. […] After incubation for 10 min at 30° C., the malachite dye was added and free phosphate was measured by optical density at 650 nm. In order to avoid variation resulting from differences in the amount of immunoprecipitation protein between samples, the phosphatase activities were normalized to the amounts of PP2A immunoprecipitated, which were detected and quantified by immunoblot analysis for each treatment group.

H520 = experiment: cell viability of H520 cells, 1 and 10 uM; type: cell-based; settings: Homo sapiens, NCI-H520
H358 = experiment: cell viability of H358 cells, 1 and 10 uM; type: cell-based; settings: Homo sapiens, NCI-H358
PLC5 = experiment: MTT cell viability, PLC5; type: cell-based; settings: 48 h
Experimental: as §1, §2

In the case of `C#Cc1cccc(Nc2nc3ccccc3nc2Nc2cccc(C#C)c2)c1` [TD52, N^2,N^3-bis(3-ethynylphenyl)quinoxaline-2,3-diamine], the “protein expression of CIP2A and p-Akt” value (CIP2A, p-Akt) is reported as “downregulated”, the “inhibition of in vivo tumor growth in comparison with sorafenib” value (PLC5 xenograft tumor; 10 mg/kg each, P<0.05) is reported as “more potent inhibition of in vivo tumor growth” and the tumor size (PLC5 xenograft tumor; 10 mg/kg, oral gavage daily, 4 weeks, vs control arm) is reported as “smaller than those of the control arm”. For the same molecule, the “PP2A activity in xenograft tumor samples” value (PLC5 xenograft tumor; TD-52 vs vehicle) was “enhanced PP2A activity”, the viability at 1 µM (A549; 1 uM) was 71.5 ± 6% and the viability at 10 µM (A549; 10 uM) was 9.7 ± 0.9%. The viability at 1 µM (NCI-1703; 1 uM) was 84.7 ± 2.5%, the viability at 10 µM (NCI-1703; 10 uM) was 10.1 ± 0.1% and the IC50 (NCI-1703; cell viability) was 3800 nM. For the same molecule, the IC50 (Hep3B) was 900 nM, the “minimal concentration for PP2A activation” value (PP2A) was 100 to 200 nM and the “PP2A activity in HCC cells” value (PP2A; 1 μL (printed) TD-52, 24 hr) was “enhanced”. The viability at 1 µM (H520; 1 uM) was 95.8 ± 1.26%, the viability at 10 µM (H520; 10 uM) was 14 ± 0.14% and the viability at 1 µM (H358; 1 uM) was 99.8 ± 3.8%. It also gave a viability at 10 µM (H358; 10 uM) of 11.2 ± 0.7% and an IC50 (PLC5) of 800 nM.
